GI50 and TGI data for nine compounds are collected here from PubChem BioAssay (NCI).

“And” between values parts separate entries of the source, which are not always exact repeats. Equal values may be shown once.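 In this assay, cells in 96-well plates receive the compound at five concentrations for 48 hours. Endpoints are linearly interpolated between the surrounding concentrations. The concentration for 50% growth inhibition is given as GI50. TGI: total growth inhibition.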

What all share (assay): NCI tumour cell line growth inhibition, 48 h
Assay [1] relates to NCI-H460 lung.
Assay [2] concerns SNB-75 CNS.
Assay [3] deals with CCRF-CEM leukemia.
In assay [4] the test system is 786-0 renal.
For assay [5], the system named is SK-MEL-2 melanoma.
The test system of assay [6] is OVCAR-3 ovarian.
Assay [7] has as its system SK-MEL-5 melanoma.
Assay [8] deals with OVCAR-5 ovarian.
The test system of assay [9] is A498 renal.
The subject of assay [10] is NCI/ADR-RES ovarian.

For `CN(C)CCCNC(=O)c1cc(NC(=O)c2cc(NC(=O)CCc3c[nH]c4ccccc34)cn2C)cn1C`, the GI50 in assay [1], in [2], in [3], in assay [4], in assay [5] and in assay [6] was over 100 µM each time. Moreover, the GI50 in assay [7], in assay [8], in [9] and in assay [10] was over 100 µM each time. Besides, the TGI in [1], in [2], in [3], in [4], in [5] and in assay [6] was over 100 µM throughout. In addition, the TGI in [7], in assay [8], in assay [9] and in [10] was over 100 µM throughout.

On to `CN[C@H]1C=C[C@@H]2/C=C(C)/C=C/[C@@H](C)[C@H]([C@H](C)[C@H](O)[C@@H](C)NC(C)=O)OC(=O)/C=C/C=C(C)\C=C\[C@]2(C)C1`, for which the GI50 in [1] was 0.0107 µM; in assay [2] it was 0.0049 µM; in [3] it was 6.16 µM; in assay [4] it was 0.00836 µM; in assay [7], 0.0049 µM; in [8], 10.3 µM. In addition, the GI50 in assay [9] is 0.0113 µM; in [10], 0.44 µM and 0.347 µM. The TGI in [1] was over 49 µM; in assay [2], 6.08 µM; in assay [3], over 49 µM; in assay [4], over 49 µM; in assay [5], 27.9 µM; in [6], 46.7 µM. In addition, the TGI was 0.552 µM in assay [7], over 49 µM in assay [8], 2.67 µM in assay [9] and over 49 µM in [10].

As for `FC(F)c1nc2ccccc2n1-c1nc(N2CCOCC2)nc(N2CCOCC2)n1`, the GI50 is 0.276 µM and 0.303 µM in assay [1]; 0.0257 µM and 0.0295 µM in assay [2]; 0.495 µM and 0.556 µM in assay [3]; 0.146 µM and 0.223 µM in assay [4]; 0.519 µM and 1.08 µM in assay [5]; 0.204 µM and 0.281 µM in [6]. Besides, the GI50 is 0.453 µM and 0.338 µM in assay [7]; 0.329 µM and 0.447 µM in [8]; 0.0303 µM and 0.0216 µM in assay [9]; 0.457 µM and 0.496 µM in assay [10]. Besides, the TGI in assay [1] was over 100 µM; in assay [2], 0.403 µM and 0.481 µM; in assay [3], over 100 µM; in [4], 1.43 µM and 2.94 µM; in assay [5], 2.79 µM and 14.3 µM; in assay [6], 3.44 µM and 5.67 µM. Besides, the TGI is 2.11 µM and 2.37 µM in assay [7]; over 100 µM in [8]; 0.169 µM and 0.138 µM in assay [9]; over 100 µM in [10].

With `O=C1c2ccccc2-c2c1c1c(=O)[nH]c3ccccc3c1n2Cc1ccccc1`, the GI50 in assay [1] is 61.7 µM; in assay [2], 15.6 µM; in assay [3] it was over 100 µM; in [4] it was 33 µM; in [5], over 100 µM; in assay [6], 35 µM. The GI50 in assay [7] is over 100 µM; in assay [8], 49.5 µM; in assay [9], 21.1 µM; in [10], 52.6 µM. Moreover, the TGI in [1] is over 100 µM; in assay [2], 30.1 µM; in assay [3], over 100 µM; in [4], 85 µM; in assay [5], over 100 µM; in [6], over 100 µM. The TGI in [7] was over 100 µM; in [8], over 100 µM; in [9] it was 50.6 µM; in assay [10], over 100 µM.

For the compound `CC(=O)O[C@H]1CC[C@@]2(C)C(=CC[C@H]3[C@@H]4CC[C@H](c5cc(C(F)(F)F)n(C(C)=O)n5)[C@@]4(C)CC[C@@H]32)C1`, the TGI amounted to 12.6 µM in assay [1]; 20.8 µM in assay [2]; 9.04 µM in assay [3]; 17.7 µM in [4]; 20.8 µM in assay [5]; 18.7 µM in assay [6]. Besides, the TGI worked out at 15.3 µM in assay [7], 22.1 µM in assay [8], 22.5 µM in [9] and 24 µM in [10].

With `COc1ccc(-c2cc(=O)c3ccc(C)nc3[nH]2)cc1`, the GI50 is over 100 µM in assay [1], over 100 µM in [4], over 100 µM in assay [6] and 48 µM in [7]. Further, the TGI in assay [1], in assay [3], in assay [4], in assay [5], in [6] and in assay [7] was over 100 µM in each case. In addition, the TGI in assay [8], in [9] and in assay [10] was over 100 µM in each case.

Turning to `COc1cc(NC(N)=NCCC(C)(C)Oc2ccc(C(F)(F)F)cc2)ncc1C#N`, the GI50 in assay [1] was 1.72 µM; in assay [2] it was 1.55 µM; in assay [4], 1.61 µM; in assay [5], 1.79 µM; in [6], 1.68 µM; in [7], 1.58 µM. Moreover, the GI50 is 1.88 µM in assay [8], 1.8 µM in assay [9] and 1.66 µM in [10]. Also, the TGI in assay [1] turned out to be 3.39 µM; in assay [2], 3.02 µM; in assay [4], 3.14 µM; in assay [5], 3.27 µM; in assay [6], 3.17 µM; in assay [7], 2.93 µM. In addition, the TGI in [8] was 3.36 µM; in assay [9] it was 3.23 µM; in assay [10] it was 3.24 µM.

Consider `CC(C)=CCc1c(OC(=O)c2c(C)cc(O)cc2O)cc(CO)c(CO)c1O`, for which the TGI in [1] was 39.2 µM; in assay [2], 40.7 µM; in [4], over 100 µM; in assay [5], 59.5 µM; in [7], 29.1 µM; in [8], 43.1 µM. The results for the TGI in assay [9] and in assay [10] were 35.1 µM and 85.6 µM, respectively.

Take `Nc1ccc(C2=NN(c3ccccc3)C(c3ccc(Cl)cc3)C2)cc1` (stereo not given): the GI50 is 3.94 µM in assay [1]; 3.76 µM in [2]; 2.3 µM in [3]; 2.03 µM in assay [4]; 2.59 µM in [6]; 2.71 µM in assay [7]. Moreover, the GI50 in [8] is 10.6 µM; in assay [9], 1.9 µM; in assay [10], 3.64 µM. The TGI in assay [1] was 16.3 µM; in [2], 16.2 µM; in [3] it was 6.17 µM; in assay [4] it was 4.22 µM; in assay [6], 6.88 µM; in assay [7], 8.48 µM. The TGI was 24.8 µM in [8], 13 µM in assay [9] and 19.4 µM in [10].
